Data set [1] addresses T1, hAMY3 receptor (Homo sapiens, UniProt O60896+P30988).
T1 sequence (P30988 25-474): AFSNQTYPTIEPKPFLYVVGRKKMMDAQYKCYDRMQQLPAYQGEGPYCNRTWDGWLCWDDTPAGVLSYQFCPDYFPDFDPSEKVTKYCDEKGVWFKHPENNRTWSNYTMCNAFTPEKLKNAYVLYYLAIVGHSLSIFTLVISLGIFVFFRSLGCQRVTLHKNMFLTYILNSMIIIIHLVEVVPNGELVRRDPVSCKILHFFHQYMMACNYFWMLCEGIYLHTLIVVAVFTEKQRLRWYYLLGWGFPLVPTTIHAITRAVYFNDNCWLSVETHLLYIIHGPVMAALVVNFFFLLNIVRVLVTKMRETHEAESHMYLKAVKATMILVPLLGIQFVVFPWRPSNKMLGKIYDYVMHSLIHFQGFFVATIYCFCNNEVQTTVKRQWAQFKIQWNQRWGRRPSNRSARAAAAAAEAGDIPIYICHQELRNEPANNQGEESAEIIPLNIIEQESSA
T1 sequence (O60896 24-148 partner): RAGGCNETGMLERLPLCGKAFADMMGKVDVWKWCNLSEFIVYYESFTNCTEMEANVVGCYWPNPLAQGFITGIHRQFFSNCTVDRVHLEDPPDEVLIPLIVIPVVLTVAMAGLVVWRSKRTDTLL
Nature of the data set: cAMP assay for in vitro receptor activation, hAMY3-R. Format: cell-based. The following applies: cAMP assay, hAMY3 receptor; read-out: hAMY3R EC50. An outline of the steps:
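Monoclonal cell line stably overexpressing hAMY3 receptor, plated in DPBS with 0.05% casein and 0.5 mM IBMX, was stimulated with graded compound doses for 30 min at room temperature. cAMP accumulation was read by time-resolved FRET one hour after adding detection reagents.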
A general note: Changes in cAMP serve as a functional read-out for many G protein-coupled receptors.

The nature of data set [2]: Physical stability of peptide analogues (Thioflavin T fibrillation). The following applies: maximum ThT signal normalized between hAMY maximum and buffer background; 40° C., shaking, four days; pH 7 per table title. Format: physicochemical. An outline of the steps:
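1 h in 50 mM NaOAc pH 4 / 50 mM NaPi pH 7; + ThT 4 μM final; 40 °C, 700 rpm linear shake 5 min pre-read; ex 450, em 480 nm q10 min × 4 d; LOESS smoothing; max signal normalised to hAMY max vs buffer blank.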

Bridge positions count the residues as written; N and C are the ends. Square brackets hold non-standard residues; d marks the D form. Peptide text beside a SMILES is read from it. Hyp = O=C(O)[C@@H]1C[C@@H](O)CN1

As usually defined, the EC50 is the concentration giving half of the maximal effect. Consider `CC[C@H](C)[C@H](NC(=O)[C@H](CCC(N)=O)NC(=O)[C@H](Cc1c[nH]cn1)NC(=O)[C@H](C)NC(=O)[C@H](CC(C)C)NC(=O)[C@H](CCCNC(=N)N)NC(=O)[C@H](CCC(N)=O)NC(=O)[C@@H](NC(=O)[C@@H](NC(=O)[C@@H]1CSSC[C@H](NC(=O)CN)C(=O)N[C@@H](CCCNC(=N)N)C(=O)N[C@@H](Cc2ccccc2)C(=O)NCC(=O)N[C@@H]([C@@H](C)O)C(=O)N1)[C@@H](C)O)C(C)C)C(=O)N[C@@H](Cc1ccc(O)cc1)C(=O)N[C@@H](CCC(N)=O)C(=O)N[C@@H](Cc1ccccc1)C(=O)N[C@H](C(=O)N[C@@H](CC(=O)O)C(=O)N[C@@H](CCCCN)C(=O)N[C@@H](CC(=O)O)C(=O)N[C@@H](CCCCN)C(=O)N[C@@H](CC(=O)O)C(=O)N[C@@H](CC(N)=O)C(=O)N[C@H](C(=O)N[C@@H](C)C(=O)N1CCC[C@H]1C(=O)N[C@@H](CCCNC(=N)N)C(=O)N[C@H](C(=O)N[C@@H](CC(N)=O)C(=O)N[C@H](C(=O)N[C@@H](CO)C(=O)N1CCC[C@H]1C(=O)N[C@@H](CCC(N)=O)C(=O)NCC(=O)N1C[C@H](O)C[C@H]1C(N)=O)[C@@H](C)CC)[C@@H](C)O)C(C)C)[C@@H](C)O` [compound 141] (H-GCRFGTCTVQRLAHQIYQFTDKDKDNVAPRTNISPQG[Hyp]-NH2; disulfide 2-7; N-terminus assumed), for which the EC50 in data set [1] worked out at 0.036 nM. The “Max ThT signal (%)” value in data set [2] was found to be 3.200%.
Regarding `CC[C@H](C)[C@H](NC(=O)[C@H](CCC(N)=O)NC(=O)[C@H](Cc1c[nH]cn1)NC(=O)[C@H](C)NC(=O)[C@H](CC(C)C)NC(=O)[C@H](CCCNC(=N)N)NC(=O)[C@H](CCC(N)=O)NC(=O)[C@@H](NC(=O)[C@@H](NC(=O)[C@@H]1CSSC[C@H](NC(=O)CN)C(=O)N[C@@H](CCCNC(=N)N)C(=O)N[C@@H]([C@@H](C)O)C(=O)NCC(=O)N[C@@H]([C@@H](C)O)C(=O)N1)[C@@H](C)O)C(C)C)C(=O)N[C@@H](Cc1ccc(O)cc1)C(=O)N[C@@H](CCC(N)=O)C(=O)N[C@@H](Cc1ccccc1)C(=O)N[C@H](C(=O)N[C@@H](CC(=O)O)C(=O)N[C@@H](CCCCN)C(=O)N[C@@H](CC(=O)O)C(=O)N[C@@H](CCCCN)C(=O)N[C@@H](CC(=O)O)C(=O)N[C@@H](CC(N)=O)C(=O)N[C@H](C(=O)N[C@@H](C)C(=O)N1CCC[C@H]1C(=O)N[C@@H](CCCNC(=N)N)C(=O)N[C@H](C(=O)N[C@@H](CCCCN)C(=O)N[C@H](C(=O)NCC(=O)N1CCC[C@H]1C(=O)N[C@@H](CCC(N)=O)C(=O)NCC(=O)N1C[C@H](O)C[C@H]1C(N)=O)C(C)C)[C@@H](C)O)C(C)C)[C@@H](C)O` [compound 143] (H-GCRTGTCTVQRLAHQIYQFTDKDKDNVAPRTKVGPQG[Hyp]-NH2; disulfide 2-7; N-terminus assumed), the EC50 in data set [1] came out at 0.038 nM. The “Max ThT signal (%)” value in data set [2] worked out at 2.200%.
Turning to `CC[C@H](C)[C@H](NC(=O)[C@H](CCC(N)=O)NC(=O)[C@H](Cc1c[nH]cn1)NC(=O)[C@H](C)NC(=O)[C@H](CC(C)C)NC(=O)[C@H](CCCNC(=N)N)NC(=O)[C@H](CCC(N)=O)NC(=O)[C@@H](NC(=O)[C@@H](NC(=O)[C@@H]1CSSC[C@H](NC(=O)CN)C(=O)N[C@@H](CCCNC(=N)N)C(=O)N[C@@H](Cc2ccccc2)C(=O)NCC(=O)N[C@@H]([C@@H](C)O)C(=O)N1)[C@@H](C)O)C(C)C)C(=O)N[C@@H](Cc1ccc(O)cc1)C(=O)N[C@@H](CCC(N)=O)C(=O)N[C@@H](Cc1ccccc1)C(=O)N[C@H](C(=O)N[C@@H](CC(=O)O)C(=O)N[C@@H](CCCCN)C(=O)N[C@@H](CC(=O)O)C(=O)N[C@@H](CCCCN)C(=O)N[C@@H](CC(=O)O)C(=O)N[C@@H](CC(N)=O)C(=O)N[C@H](C(=O)N[C@@H](C)C(=O)N1CCC[C@H]1C(=O)N[C@@H](CCCNC(=N)N)C(=O)N[C@@H](CO)C(=O)N[C@@H](CC(N)=O)C(=O)N[C@H](C(=O)N[C@@H](CO)C(=O)N1CCC[C@H]1C(=O)N[C@@H](CCC(N)=O)C(=O)NCC(=O)N1C[C@H](O)C[C@H]1C(N)=O)C(C)C)C(C)C)[C@@H](C)O` [compound 145] (H-GCRFGTCTVQRLAHQIYQFTDKDKDNVAPRSNVSPQG[Hyp]-NH2; disulfide 2-7; N-terminus assumed), in data set [1], the EC50 is 0.039 nM. Further, the “Max ThT signal (%)” value in data set [2] is listed as 2.000%.
The corresponding values for `CC[C@H](C)[C@H](NC(=O)[C@H](CCC(N)=O)NC(=O)[C@H](Cc1c[nH]cn1)NC(=O)[C@H](C)NC(=O)[C@H](CC(C)C)NC(=O)[C@H](CCCNC(=N)N)NC(=O)[C@H](CCC(N)=O)NC(=O)[C@@H](NC(=O)[C@@H](NC(=O)[C@@H]1CSSC[C@H](NC(=O)CN)C(=O)N[C@@H](CCCNC(=N)N)C(=O)N[C@@H](Cc2ccccc2)C(=O)NCC(=O)N[C@@H]([C@@H](C)O)C(=O)N1)[C@@H](C)O)C(C)C)C(=O)N[C@@H](Cc1ccc(O)cc1)C(=O)N[C@@H](CCC(N)=O)C(=O)N[C@@H](Cc1ccccc1)C(=O)N[C@H](C(=O)N[C@@H](CC(=O)O)C(=O)N[C@@H](CCCCN)C(=O)N[C@@H](CC(=O)O)C(=O)N[C@@H](CCCCN)C(=O)N[C@@H](CC(=O)O)C(=O)N[C@@H](CC(N)=O)C(=O)N[C@H](C(=O)N[C@@H](C)C(=O)N1CCC[C@H]1C(=O)N[C@@H](CCCNC(=N)N)C(=O)N[C@H](C(=O)N[C@@H](CCCCN)C(=O)N[C@H](C(=O)N[C@@H](CO)C(=O)N1CCC[C@H]1C(=O)N[C@@H](CCC(N)=O)C(=O)NCC(=O)N1C[C@H](O)C[C@H]1C(N)=O)[C@@H](C)CC)[C@@H](C)O)C(C)C)[C@@H](C)O` [compound 146] (H-GCRFGTCTVQRLAHQIYQFTDKDKDNVAPRTKISPQG[Hyp]-NH2; disulfide 2-7; N-terminus assumed) are 0.04 nM and 3.600%.
As to `CC[C@H](C)[C@@H]1NC(=O)[C@H](CCCNC(=N)N)NC(=O)[C@@H](NC(=O)CN)CSSC[C@@H](C(=O)N[C@H](C(=O)N[C@H](C(=O)N[C@@H](CCC(N)=O)C(=O)N[C@@H](CCCNC(=N)N)C(=O)N[C@@H](CC(C)C)C(=O)N[C@@H](C)C(=O)N[C@@H](Cc2c[nH]cn2)C(=O)N[C@@H](CCC(N)=O)C(=O)N[C@H](C(=O)N[C@@H](Cc2ccc(O)cc2)C(=O)N[C@@H](CCC(N)=O)C(=O)N[C@@H](Cc2ccccc2)C(=O)N[C@H](C(=O)N[C@@H](CC(=O)O)C(=O)N[C@@H](CCCCN)C(=O)N[C@@H](Cc2ccccc2)C(=O)N[C@@H](CCCCN)C(=O)N[C@@H](CC(=O)O)C(=O)N[C@@H](CC(N)=O)C(=O)N[C@H](C(=O)N[C@@H](C)C(=O)N2CCC[C@H]2C(=O)N[C@@H](CCCNC(=N)N)C(=O)N[C@@H](CO)C(=O)N[C@@H](CCCCN)C(=O)N[C@H](C(=O)N[C@@H](CO)C(=O)N2CCC[C@H]2C(=O)N[C@@H](CCC(N)=O)C(=O)N[C@H](C(=O)N2C[C@H](O)C[C@H]2C(N)=O)[C@@H](C)O)[C@@H](C)CC)C(C)C)[C@@H](C)O)[C@@H](C)CC)C(C)C)[C@@H](C)O)NC(=O)[C@H]([C@@H](C)O)NC(=O)CNC1=O` [compound 147] (H-GCRIGTCTVQRLAHQIYQFTDKFKDNVAPRSKISPQT[Hyp]-NH2; disulfide 2-7; N-terminus assumed), the EC50 in data set [1] is 0.04 nM. Also, the “Max ThT signal (%)” value in data set [2] came to 5.100%.
As for `CC[C@H](C)[C@H](NC(=O)[C@H](CCC(N)=O)NC(=O)[C@H](Cc1c[nH]cn1)NC(=O)[C@H](C)NC(=O)[C@H](CC(C)C)NC(=O)[C@H](CCCNC(=N)N)NC(=O)[C@H](CCC(N)=O)NC(=O)[C@@H](NC(=O)[C@@H](NC(=O)[C@@H]1CSSC[C@H](NC(=O)CN)C(=O)N[C@@H](CCCNC(=N)N)C(=O)N[C@@H](Cc2ccccc2)C(=O)NCC(=O)N[C@@H]([C@@H](C)O)C(=O)N1)[C@@H](C)O)C(C)C)C(=O)N[C@@H](Cc1ccc(O)cc1)C(=O)N[C@@H](CCC(N)=O)C(=O)N[C@@H](Cc1ccccc1)C(=O)N[C@H](C(=O)N[C@@H](CC(=O)O)C(=O)N[C@@H](CCCCN)C(=O)N[C@@H](CC(=O)O)C(=O)N[C@@H](CCCCN)C(=O)N[C@@H](CC(=O)O)C(=O)N[C@@H](CC(N)=O)C(=O)N[C@H](C(=O)N[C@@H](C)C(=O)N1CCC[C@H]1C(=O)N[C@@H](CCCNC(=N)N)C(=O)N[C@@H](CO)C(=O)N[C@@H](CCCCN)C(=O)N[C@H](C(=O)NCC(=O)N1CCC[C@H]1C(=O)N[C@@H](CCC(N)=O)C(=O)NCC(=O)N1C[C@H](O)C[C@H]1C(N)=O)C(C)C)C(C)C)[C@@H](C)O` [compound 152] (H-GCRFGTCTVQRLAHQIYQFTDKDKDNVAPRSKVGPQG[Hyp]-NH2; disulfide 2-7; N-terminus assumed), in data set [1], the EC50 was determined as 0.041 nM. Also, the “Max ThT signal (%)” value in data set [2] turned out to be 1.900%.

The record behind these values is patent US12139520B2 (priority 2020, dated 2024).
